From patent US11986463B2, “Combination therapy for the treatment of gastrointestinal stromal tumor” (Deciphera Pharmaceuticals, LLC, priority 2018, dated 2024)
Like-named read-outs stand apart in the source and are kept apart here. Blank lines part the entries; values can stand above or below the compound they belong to.

What was measured:
[1] = system: Ba/F3 cells transformed with oncogenic KIT V560D mutant; conditions: 100 nM, 250 nM or 500 nM imatinib single agent
Procedure: A saturation mutagenesis study was performed in Ba/F3 cells transformed with oncogenic KIT V560D mutant. DNA nicking was induced by N-ethyl-N-nitrosourea (ENU) for 18 hours to generate additional mutations in the KIT gene or other genes in a random fashion. Assays were conducted in 6 well plates with 100 cells seeded per well. […] These cells were subjected to PCR and sequencing of the KIT gene to determine the presence of a resistant secondary mutation induced by the ENU treatment.

[2] = system: GIST-T1/T670I imatinib resistant cells; assay: Colony outgrowth assay, GIST-T1/T670I; assay type: cell-based
Source text: (§1) The outgrown cell colonies were stained with crystal violet and counted.

[3] = system: GIST-T1/D816E imatinib resistant cells; assay: Colony outgrowth assay, GIST-T1/D816E; assay type: cell-based
Source text: as §1

[4] = system: GIST-T1 (57 bp exon 11 deletion) imatinib sensitive cells; assay: Colony outgrowth assay, GIST-T1; assay type: cell-based
Source text: as §1

GIST T1 xenograft = GIST T1 xenograft model; assay type: in vivo, mice; conditions: for mice with partial tumor regression during the dosing period / mice with complete tumor regression during the dosing period: days 10-27; for mice remaining in partial tumor regression at the end of study: end of study day 66
Procedure: The GIST T1 xenograft model was performed in compliance with all the laws, regulations and guidelines of the National Institutes of Health (NIH) and with the approval of the Animal Care and Use Committee of MI Bioresearch (Ann Arbor, MI), an AAALAC accredited facility. All mice had food and water ad libitum. […] Female Envigo nude mice (HsdCrl:Athymic Nude-NU-Foxn1nu; 6-7 weeks old) were inoculated subcutaneously just below the right high axilla with five million cells in Dulbecco's Phosphate Buffered Saline mixed with an equal volume of Matrigel, using a 27 gauge needle and syringe. When tumor burdens reached 117 mm^3 on average on day 10, mice were randomly assigned into groups such that the mean tumor burden for all groups was within 10% of the overall mean tumor burden for the study population. […] On Day 27, all animals were placed on control diet to monitor tumor regrowth. Tumor volume and body weight were measured thrice weekly. Tumor burden (mg) was estimated from caliper measurements by the formula: tumor burden (mg=mm^3)=(length×width^2)/2.

[5] = molecular target: T1, human efflux transporter BCRP (Homo sapiens, UniProt Q9UNQ0); assay: BCRP vesicular transport inhibition assay; assay type: biochemical
T1 construct: inside-out membrane vesicles
T1 sequence (Q9UNQ0 1-655): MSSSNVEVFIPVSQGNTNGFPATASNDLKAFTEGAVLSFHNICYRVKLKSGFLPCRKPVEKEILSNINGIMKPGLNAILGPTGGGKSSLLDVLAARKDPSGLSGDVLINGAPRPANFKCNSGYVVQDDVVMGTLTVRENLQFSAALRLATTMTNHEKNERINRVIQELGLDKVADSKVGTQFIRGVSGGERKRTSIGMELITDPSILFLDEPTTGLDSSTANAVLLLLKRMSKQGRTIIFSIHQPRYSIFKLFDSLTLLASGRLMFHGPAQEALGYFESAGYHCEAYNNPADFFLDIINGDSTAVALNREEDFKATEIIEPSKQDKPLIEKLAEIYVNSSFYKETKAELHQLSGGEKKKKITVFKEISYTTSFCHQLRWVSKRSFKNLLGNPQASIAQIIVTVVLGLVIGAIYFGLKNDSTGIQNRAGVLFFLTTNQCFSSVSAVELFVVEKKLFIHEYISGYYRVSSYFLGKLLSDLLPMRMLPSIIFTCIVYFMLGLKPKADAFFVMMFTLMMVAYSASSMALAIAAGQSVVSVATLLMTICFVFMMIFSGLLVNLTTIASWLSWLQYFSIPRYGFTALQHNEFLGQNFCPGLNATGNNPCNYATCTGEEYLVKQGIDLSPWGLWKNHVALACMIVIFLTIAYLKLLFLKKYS
Procedure: (§2) The IC50 value was estimated to be approximately 0.04 μM.

BCRP = molecular target: T2, BCRP (Homo sapiens, UniProt Q9UNQ0); assay: BCRP vesicular transport inhibition assay; assay type: biochemical; conditions: human; 0.04 μM, lowest concentration tested; read-out: inhibition of the transport of the probe substrate of BCRP
T2 construct: inside-out membrane vesicles
T2 sequence (Q9UNQ0 1-655): T1 sequence (Q9UNQ0 1-655)
Procedure: as §2

[6] = low dose Compound A approximately 25 mg/kg/day in diet, trametinib 0.5 mg/kg BID where combined

SMILES: Cc1ccc(NC(=O)c2ccc(CN3CCN(C)CC3)cc2)cc1Nc1nccc(-c2cccnc2)n1 [imatinib, reference compound]
outgrowth of resistant secondary KIT mutations [1]: T670I, K807E, and/or D816V imatinib-resistant secondary KIT mutants were identified
reduction of GIST-T1/T670I colonies ([2]; imatinib 500 nM single agent (FIG. 10C)): does not show any reduction of colonies

IC50 ([5]; 7 concentrations, vesicular transport inhibition, read-out: IC50, BCRP (estimated)): ~40 nM
IC50 ([5]; read-out: IC50, BCRP efflux transporter): 40 nM
inhibition at 0.04 µM (BCRP): 44%
SMILES: CCn1c(=O)c(-c2cc(NC(=O)Nc3ccccc3)c(F)cc2Br)cc2cnc(NC)cc21 [Compound A, 1-[4-bromo-5-[1-ethyl-7-(methylamino)-2-oxo-1,2-dihydro-1,6-naphthyridin-3-yl]-2-fluorophenyl]-3-phenylurea]
GIST T1/D816E colony outgrowth ([3]; Compound A 50 nM, 100 nM or 250 nM single agent (FIG. 14B)): 81-93 % of vehicle control
GIST T1/T670I colony outgrowth ([2]; Compound A 100 nM or 250 nM single agents, dose dependent (FIG. 10C)): 78-89 % of vehicle control
GIST T1 colony outgrowth ([4]; Compound A single agents (FIG. 14A)): 37-41 % of vehicle control
mice with partial tumor regression during the dosing period (GIST T1 xenograft; high dose Compound A approximately 100 mg/kg/day in diet): 4/10
mice with complete tumor regression during the dosing period (GIST T1 xenograft; high dose Compound A approximately 100 mg/kg/day in diet, trametinib 0.5 mg/kg BID where combined): 6/10
mice remaining in partial tumor regression at the end of study (GIST T1 xenograft; high dose Compound A approximately 100 mg/kg/day, trametinib 0.5 mg/kg BID where combined): 1/10
mice with complete tumor regression during the dosing period (GIST T1 xenograft; [6]): 2/10
mice with partial tumor regression during the dosing period (GIST T1 xenograft; [6]): 6/10
mice remaining in partial tumor regression at the end of study (GIST T1 xenograft; low dose Compound A approximately 25 mg/kg/day, trametinib 0.5 mg/kg BID where combined): 2/10

SMILES: CCn1c(=O)c(-c2cc(NC(=O)Nc3ccccc3)c(F)cc2Br)cc2cnc(N)cc21 [Compound B, 1-(5-(7-amino-1-ethyl-2-oxo-1,2-dihydro-1,6-naphthyridin-3-yl)-4-bromo-2-fluorophenyl)-3-phenylurea]
GIST T1/D816E colony outgrowth ([3]; Compound B 50 nM, 100 nM or 250 nM single agent (FIG. 9B)): 59-84 % of vehicle control
GIST T1/D816E colony outgrowth ([3]; Compound B 50 nM, 100 nM or 250 nM single agent (FIG. 15)): 52-95 % of vehicle control
GIST T1/D816E colony outgrowth ([3]; Compound B 100 nM or 250 nM single agent (FIG. 13B)): 58-84 % of vehicle control
GIST T1/D816E colony outgrowth ([3]; Compound B 100 nM or 250 nM single agents (FIG. 11B)): 74-83 % of vehicle control
GIST T1/T670I colony outgrowth ([2]; Compound B 50 nM, 100 nM, 250 nM single agents (FIG. 9C)): 75-78 % of vehicle control
GIST T1/T670I colony outgrowth ([2]; Compound B 100 nM or 250 nM single (FIG. 13C)): 75-78 % of vehicle control
GIST T1/T670I colony outgrowth ([2]; Compound B 100 nM or 250 nM single agent (FIG. 11C)): 72-78 % of vehicle control
reduction of GIST T1 colony outgrowth compared to vehicle control ([4]; Compound B single agent (FIG. 9A)): 42-54%
GIST T1 colony outgrowth ([4]; Compound B single agent (FIG. 13A)): 42-54 % of vehicle control
GIST T1 colony outgrowth ([4]; each concentration of Compound B as a single agent (FIG. 11A)): 27-31 % of vehicle control
